Laboratory results from PMC3303948 (Steroids, 2012).
Where “and” joins values, the source holds several entries; their conditions need not be identical. Equal values may be shown once.

Legend:
[1] = Plasma pharmacokinetics of 1,25; type: in vivo, nu/nu mice
Tumor = type: in vivo, nu/nu mice
[2] = 0.5 µg/kg once weekly; oncology setting; cited from earlier work
CYP24 mRNA [3] = assay: CYP24 mRNA expression in H292 cells in vitro
CYP24 mRNA [4] = assay: CYP24 mRNA expression in H292 xenografts in vivo
[5] = Compartmental analysis of plasma and tumor 1,25
CYP27B1 mRNA = CYP27B1 mRNA expression in H292 cells in vitro; type: cell-based, human; settings: data not shown
CYP24 [6] = settings: cited from earlier work
CYP24 [7] = settings: in vitro; 50 nM CTA091; ref Zhang et al., manuscript under review; cited from earlier work
[8] = ref personal communication, M. Petkovich; cited from earlier work
[9] = female, nu/nu, mouse, plasma, ip, 20 ug/kg
[10] = female, nu/nu, mouse, tumor (H292 xenograft), ip, 20 ug/kg
[11] = compartmental model, tumor volume fixed at 1 L/kg
[12] = 250 µg/kg CTA091 i.p. with 20 µg/kg 1,25(OH)2D3 versus 1,25(OH)2D3 alone
[13] = rats, a similar dose (to 250 µg/kg)
[14] = compartmental model, 250 µg/kg CTA091

In the case of `C=C1/C(=C\C=C2/CCC[C@]3(C)[C@@H]([C@H](C)CCCC(C)(C)O)CC[C@@H]23)C[C@@H](O)C[C@@H]1O` [1,25(OH)2D3, 1,25-dihydroxyvitamin D3], the AUC(0-inf) [1, 9] is reported as 69.1 ng·h/mL, the AUC(0-t) [1, 9] is reported as 67.4 ng·h/mL and the CL/F [1, 9] is reported as 4.82 mL/min/kg. The Cmax [1, 9] was 21.6 ng/mL, the Tmax [1, 9] was 0.25 h and the Vd/F [1, 9] was 0.592 L/kg. The half-life [1, 9] was 1.42 h, the k el [1, 9] was 0.000136 s⁻¹ and the Tmax ([1]; female, nu/nu, mouse, plasma, ip, 20 µg/kg) was 0.25 to 0.5 h. The “Maximum tumor concentration of 1,25(OH)2D3” value (Tumor; H292 tumor, 20 µg/kg 1,25(OH)2D3 i.p.) was 1.70 ng/mL, the “Tumor Cmax of 1,25(OH)2D3” value (Tumor; H292 tumor, 20 µg/kg 1,25(OH)2D3 i.p. alone or with 250 µg/kg CTA091) was 1.7 ng/g and 1.70 ng/g and the Tmax (Tumor; [10]) was 2 h. The half-life (Tumor; [10]) was 1.95 h, the k el (Tumor; [10]) was 9.86e-05 s⁻¹ and the “Peak tumor concentration of 1,25(OH)2D3 (molar)” value (Tumor; given that 1 g of tumor has a volume of 1 mL, without or with CTA091) was 3.8 nM. The “Safety of high-dose 1,25(OH)2D3” value [2] was “safely delivered”, the “Induction of CYP24 expression in H292 cells in vitro” value (CYP24 mRNA [3]; 1 nM 1,25(OH)2D3 (Fig. 1A)) was “induced to express CYP24” and the “Increase in tumor CYP24 mRNA levels” value (CYP24 mRNA [4]; single dose of 1,25(OH)2D3, 4 h post-treatment) was “approximately 4 fold”. For the same compound, the “Increase in tumor CYP24 mRNA levels” value (CYP24 mRNA [4]; single dose of 1,25(OH)2D3, after 8 h) was ~15 fold, the “kct, transfer rate constant from the central to the tumor compartment, Estimate (%SE)” value [5, 11] was 0.454 (18) h^−1 and the “ktc, transfer rate constant from the tumor to the central compartment, Estimate (%SE)” value [5, 11] was 1.24 (22) h^−1. It also gave a CL/F [5, 9] of 4.85 mL/min/kg, a Vd/F [5, 9] of 0.653 L/kg and a half-life [5, 9] of 1.56 h. For the same compound, the k el [5, 9] was 0.000124 s⁻¹, the k el ([5]; female, nu/nu, mouse, tumor (H292 xenograft), intraperitoneal, 20 µg/kg) was 0.000292 s⁻¹ and the half-life [5, 10] was 0.661 h. It also gave a k el [5, 10] of 0.000289 s⁻¹.

For `C=C1/C(=C\C=C2/CCC[C@]3(C)[C@@H]([C@H](C)CCS(=N)(=O)c4ccccc4)CC[C@@H]23)C[C@@H](O)C[C@@H]1O` (stereo partly drawn) [CTA091], the “+/− CTA091 Ratio, plasma AUC0-inf of 1,25(OH)2D3” value [1, 12] was 1.5, the “+/− CTA091 Ratio, plasma AUC0–8h of 1,25(OH)2D3” value [1, 12] was 1.4 and the “+/− CTA091 Ratio, plasma Cl/F of 1,25(OH)2D3” value [1, 12] was 0.68. For the same compound, the “+/− CTA091 Ratio, plasma Cmax of 1,25(OH)2D3” value [1, 12] was 1.6, the “+/− CTA091 Ratio, plasma Kel of 1,25(OH)2D3” value [1, 12] was 0.86 and the “+/− CTA091 Ratio, plasma Tmax of 1,25(OH)2D3” value [1, 12] was 2. The “+/− CTA091 Ratio, plasma Vd/F of 1,25(OH)2D3” value [1, 12] was 0.79, the “+/− CTA091 Ratio, plasma t1/2 of 1,25(OH)2D3” value [1, 12] was 1.2 and the “Increase in 1,25(OH)2D3 plasma levels (Cmax) by co-administered CTA091” value ([1]; 250 µg/kg CTA091 with 20 µg/kg 1,25(OH)2D3 i.p.) was 1.6 fold. The “Increase in 1,25(OH)2D3 plasma terminal half-life by CTA091” value ([1]; 250 µg/kg CTA091 with 20 µg/kg 1,25(OH)2D3 i.p., non-compartmental) was “approximately 1.2 fold”, the “+/− CTA091 Ratio, tumor/plasma AUC0–h of 1,25(OH)2D3” value (Tumor; [12]) was 1.8 and the “+/− CTA091 Ratio, tumor/plasma Cmax of 1,25(OH)2D3” value (Tumor; [12]) was 1.7. For the same compound, the “Increase in 1,25(OH)2D3 tumor levels by co-administered CTA091” value (Tumor; 250 µg/kg CTA091 with 20 µg/kg 1,25(OH)2D3 i.p., H292 tumor) was 2.6 fold, the “Effect on CYP27B1 mRNA expression” value (CYP27B1 mRNA) was “no effect” and the “Increase in rat serum 1,25(OH)2D3 Cmax” value (CYP24 [6]; rat, 500 µg/kg CTA091) was 1.5 fold. The “Increase in rat serum 1,25(OH)2D3 exposure” value (CYP24 [6]; rat, 500 µg/kg CTA091) was 1.4 fold, the “Effect on endogenous 1,25(OH)2D3 levels” value (CYP24 [6]; [13]) was “increased endogenous 1,25(OH)2D3 levels” and the “Effect on serum PTH levels” value (CYP24 [6]; [13]) was “decreased serum PTH levels”. The “Effect on 1,25(OH)2D3-mediated transcription” value (CYP24 [7]) was “significantly increases 1,25(OH)2D3-mediated transcription”, the “Inhibition of 1,25(OH)2D3 catabolism” value (CYP24 [7]) was “consistently and maximally inhibits 1,25(OH)2D3 catabolism” and the “Plasma clearance of CTA091 relative to 1,25(OH)2D3” value [8] was “cleared from plasma more rapidly than 1,25(OH)2D3”. The “Increase of the transcriptional induction of CYP24 by 1,25(OH)2D3” value (CYP24 mRNA [3]; H292 cells, CTA091 with 1,25(OH)2D3, data not shown) was “approximately 4 fold”, the “Effect of CTA091 alone on CYP24 gene expression” value (CYP24 mRNA [3]; H292 cells, data not shown) was “no effect” and the “Decrease in plasma clearance of 1,25(OH)2D3 by CTA091” value [5, 14] was 20%. For the same compound, the “Decrease in tumor clearance of 1,25(OH)2D3 by CTA091” value [5, 14] was 46% and the “ktc/(ktc+ ktumor elim)” value ([5]; compartmental model, tumor clearance with versus without CTA091) was 0.54.
